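Tested at 5 concentrations; 48 h exposure; 96-well plates; endpoints linearly interpolated, else capped at highest concentration. Here, GI50 denotes the concentration required for 50% inhibition of growth.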 The source made the active and inactive calls. Rule as the data show it: active = GI50 up to about 1.1 µM and inactive = higher.
How the values were obtained:
Assay in all cases: NCI-60 cell line screen, 48 h
SK-OV-3 = system: SK-OV-3
DU-145 = system: DU-145
RXF 393 = system: RXF 393
HL-60 = system: HL-60
SF-539 = system: SF-539
HCT-15 = system: HCT-15
SK-MEL-28 = system: SK-MEL-28
A549 = system: A549
Malme-3M = system: Malme-3M
HCC 2998 = system: HCC 2998
SK-MEL-2 = system: SK-MEL-2
SN12C = system: SN12C
OVCAR-5 = system: OVCAR-5
DMS-114 = system: DMS-114
KM12 = system: KM12
OVCAR-4 = system: OVCAR-4
SF-268 = system: SF-268
CAKI-1 = system: CAKI-1
U-251 = system: U-251
MDA-MB-231 = system: MDA-MB-231

SMILES	GI50 (SK-OV-3)	GI50 (DU-145)	GI50 (RXF 393)	GI50 (HL-60)	GI50 (SF-539)	GI50 (HCT-15)	GI50 (SK-MEL-28)	GI50 (A549)	GI50 (Malme-3M)	GI50 (HCC 2998)	GI50 (SK-MEL-2)	GI50 (SN12C)	GI50 (OVCAR-5)	GI50 (DMS-114)	GI50 (KM12)	GI50 (OVCAR-4)	GI50 (SF-268)	GI50 (CAKI-1)	GI50 (U-251)	GI50 (MDA-MB-231)
CCOC(=O)CCC(NC(=O)c1ccc(/N=C/c2nc3cc(C(F)(F)F)ccc3nc2-c2ccccc2)cc1)C(=O)OCC (stereo unspecified)	8.77 µM (inactive)	34.1 µM (inactive)	7.14 µM (inactive)	8.91 µM (inactive)	11.4 µM (inactive)	> 50 µM	> 50 µM (inactive)	25.1 µM (inactive)	6.4 µM (inactive)	> 50 µM (inactive)	11.3 µM (inactive)	> 50 µM (inactive)	> 50 µM (inactive)	34.3 µM (inactive)	18.3 µM (inactive)	11.5 µM (inactive)	8.34 µM (inactive)	32.4 µM (inactive)	6.07 µM (inactive)	–
Cc1cc(O)nc(NN2C(Cl)C(=O)C2c2ccccc2O)n1 (stereo unspecified)	1.44 µM (inactive)	4.06 µM (inactive)	3.03 µM (inactive)	0.689 µM (active)	4.54 µM (inactive)	0.65 µM	4.94 µM (inactive)	4.26 µM (inactive)	–	2.67 µM (inactive)	1.61 µM (inactive)	2.7 µM (inactive)	12.9 µM (inactive)	1.32 µM (inactive)	4.32 µM (inactive)	8.49 µM (inactive)	1.53 µM (inactive)	1.64 µM (inactive)	2.76 µM (inactive)	4.39 µM (inactive)
CC1CC2C3CC(F)C4=CC(=O)C=CC4(C)C3(F)C(O)CC2(C)C1(O)C(=O)CO (stereo unspecified)	< 0.01 µM (active)	–	> 100 µM (inactive)	> 100 µM (inactive)	> 100 µM (inactive)	> 100 µM	> 100 µM (inactive)	> 100 µM (inactive)	> 100 µM (inactive)	> 100 µM (inactive)	> 100 µM (inactive)	–	> 10 µM (inactive)	> 100 µM (inactive)	> 100 µM (inactive)	> 100 µM (inactive)	> 100 µM (inactive)	> 100 µM (inactive)	> 100 µM (inactive)	–
O=C1CC(c2ccc(Cl)cc2)=Nc2ccccc2N1	32.7 µM (inactive)	–	29.9 µM (inactive)	19.3 µM (inactive)	96.6 µM (inactive)	65.8 µM	> 100 µM (inactive)	> 100 µM (inactive)	> 100 µM (inactive)	97.1 µM (inactive)	> 100 µM (inactive)	46.7 µM (inactive)	> 100 µM (inactive)	81.5 µM (inactive)	> 100 µM (inactive)	28.6 µM (inactive)	> 100 µM (inactive)	> 100 µM (inactive)	20.7 µM (inactive)	–
CC1CC[C@]2(C(=O)O)CCC3(COC(=O)/C=C\c4ccc(O)cc4)C(=CCC4[C@@]5(C)CC[C@H](O)C(C)(C)C5CC[C@]43C)[C@@H]2[C@H]1C (stereo partly specified)	3.5 µM (inactive)	–	17.5 µM (inactive)	26.2 µM (inactive)	15.8 µM (inactive)	21 µM	20 µM (inactive)	11.3 µM (inactive)	34.8 µM (inactive)	17.2 µM (inactive)	20.8 µM (inactive)	20.8 µM (inactive)	19.5 µM (inactive)	25.7 µM (inactive)	7.21 µM (inactive)	39.3 µM (inactive)	14.7 µM (inactive)	11.4 µM (inactive)	9.79 µM (inactive)	–
CN(C)C[C@H]1CC[C@@H](CN(C)C)C1=O	> 50 µM (inactive)	24.3 µM (inactive)	9.29 µM (inactive)	1.29 µM (inactive)	10 µM (inactive)	4.65 µM	5.15 µM (inactive)	> 50 µM (inactive)	3 µM (inactive)	> 29.6 µM (inactive)	7.73 µM (inactive)	8.59 µM (inactive)	8.79 µM (inactive)	8.47 µM (inactive)	16.9 µM (inactive)	9.23 µM (inactive)	11.2 µM (inactive)	8.79 µM (inactive)	28.7 µM (inactive)	9.86 µM (inactive)
NC(=O)c1c2c(cc3c(=O)c4ccccc4[nH]c13)CCCC2	> 100 µM (inactive)	–	> 100 µM (inactive)	> 100 µM (inactive)	> 100 µM (inactive)	> 100 µM	> 100 µM (inactive)	> 100 µM (inactive)	> 73.6 µM (inactive)	> 100 µM (inactive)	> 65.9 µM (inactive)	> 100 µM (inactive)	> 100 µM (inactive)	> 100 µM (inactive)	> 100 µM (inactive)	> 100 µM (inactive)	> 100 µM (inactive)	> 100 µM (inactive)	> 100 µM (inactive)	–
C/C(=N\N=C(/[SeH])N1CC2CCC(CC2)C1)c1ccccn1	0.356 µM (active)	0.927 µM (active)	0.0291 µM (active)	0.0166 µM (active)	0.251 µM (active)	0.0147 µM	0.0955 µM (active)	0.0614 µM (active)	0.0506 µM (active)	0.243 µM (active)	0.156 µM (active)	0.228 µM (active)	0.179 µM (active)	< 0.01 µM (active)	0.094 µM (active)	0.03 µM (active)	0.161 µM (active)	0.293 µM (active)	0.091 µM (active)	0.115 µM (active)
Cc1cccc(C)c1NC(=O)CCC(=O)NNc1nnc(C)n1N	> 100 µM (inactive)	–	> 100 µM (inactive)	> 100 µM (inactive)	> 100 µM (inactive)	> 100 µM	> 100 µM (inactive)	> 100 µM (inactive)	> 100 µM (inactive)	> 100 µM (inactive)	> 100 µM (inactive)	> 100 µM (inactive)	> 100 µM (inactive)	> 100 µM (inactive)	> 100 µM (inactive)	> 100 µM (inactive)	> 100 µM (inactive)	> 100 µM (inactive)	> 100 µM (inactive)	–
NC(=O)c1ccc(Cl)c([N+](=O)[O-])c1	> 100 µM (inactive)	–	> 100 µM (inactive)	> 100 µM (inactive)	> 100 µM (inactive)	> 100 µM	> 100 µM (inactive)	> 100 µM (inactive)	> 100 µM (inactive)	> 100 µM (inactive)	–	> 100 µM (inactive)	> 100 µM (inactive)	> 100 µM (inactive)	> 100 µM (inactive)	> 100 µM (inactive)	> 100 µM (inactive)	> 100 µM (inactive)	> 100 µM (inactive)	–
N#CC(C(=O)CCC(=O)C(C#N)c1ccccc1)c1ccccc1 (stereo unspecified)	> 100 µM (inactive)	–	> 100 µM (inactive)	> 100 µM (inactive)	> 100 µM (inactive)	> 100 µM	> 100 µM (inactive)	> 100 µM (inactive)	> 100 µM (inactive)	> 100 µM (inactive)	> 100 µM (inactive)	> 100 µM (inactive)	> 100 µM (inactive)	> 100 µM (inactive)	> 100 µM (inactive)	> 100 µM (inactive)	> 100 µM (inactive)	> 100 µM (inactive)	> 100 µM (inactive)	–
CC1(C)CC(=O)C(=[N+]=[N-])C(=O)C1	> 100 µM (inactive)	–	> 100 µM (inactive)	> 100 µM (inactive)	> 100 µM (inactive)	> 100 µM	> 100 µM (inactive)	> 100 µM (inactive)	> 100 µM (inactive)	> 100 µM (inactive)	> 100 µM (inactive)	> 100 µM (inactive)	> 100 µM (inactive)	> 100 µM (inactive)	> 100 µM (inactive)	> 100 µM (inactive)	> 100 µM (inactive)	> 100 µM (inactive)	–	–
COC(=O)C1C(=O)N(CCc2c[nH]c3ccccc23)C[C@@H]2CCC(=O)C[C@H]12 (stereo partly specified)	> 100 µM (inactive)	–	> 100 µM (inactive)	> 100 µM (inactive)	> 100 µM (inactive)	> 100 µM	> 100 µM (inactive)	> 100 µM (inactive)	> 100 µM (inactive)	> 100 µM (inactive)	> 100 µM (inactive)	> 100 µM (inactive)	–	> 100 µM (inactive)	> 100 µM (inactive)	> 100 µM (inactive)	> 100 µM (inactive)	> 100 µM (inactive)	> 100 µM (inactive)	–

— ChEMBL document CHEMBL1201862, “PubChem BioAssay data set” (2004)
